Reference: US6737383B1, “Herbicidal oxadiazolidines” (priority 1999, dated 2004)

Columns and labels:
bedstraw = assay: Test B pre/postemergence bedstraw; type: in vivo, Galium aparine
In short: (§1)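 Herbicidal effect was estimated by eye on a ten-point control scale after plants spent twelve to sixteen days in a greenhouse following soil or foliar treatment. Foliar sprays targeted plants at one to four leaves; all doses were formulated in a non-phytotoxic solvent with surfactant.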

blackgrass = assay: Test B pre/postemergence blackgrass; type: in vivo, Alopecurus myosuroides
In short: as §1

surinam grass = assay: Test B pre/postemergence surinam grass; type: in vivo, Brachiaria decumbens
In short: as §1

cocklebur = assay: Test B pre/postemergence cocklebur; type: in vivo, Xanthium strumarium
In short: as §1

corn = assay: Test B pre/postemergence corn; type: in vivo, Zea mays
In short: as §1

crabgrass = assay: Test B pre/postemergence crabgrass; type: in vivo, Digitaria sanguinalis
In short: as §1

giant foxtail = assay: Test B pre/postemergence giant foxtail; type: in vivo, Setaria faberii
In short: as §1

morningglory = assay: Test B pre/postemergence morningglory; type: in vivo, Ipomoea hederacea
In short: as §1

pigweed = assay: Test B pre/postemergence pigweed; type: in vivo, Amaranthus retroflexus
In short: as §1

rape = assay: Test B pre/postemergence rape; type: in vivo, Brassica napus
In short: as §1

soybean = assay: Test B pre/postemergence soybean; type: in vivo, Glycine max
In short: as §1

sugar beet = assay: Test B pre/postemergence sugar beet; type: in vivo, Beta vulgaris
In short: as §1

velvetleaf = assay: Test B pre/postemergence velvetleaf; type: in vivo, Abutilon theophrasti
In short: as §1

wheat = assay: Test B pre/postemergence wheat; type: in vivo, Triticum aestivum
In short: as §1

wild oat = assay: Test B pre/postemergence wild oat; type: in vivo, Avena fatua
In short: as §1

purple nutsedge = assay: Test B pre/postemergence purple nutsedge; type: in vivo, Cyperus rotundus
In short: as §1

rice = assay: Test B flood test rice; type: in vivo, Oryza sativa
In short: (§2)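 Each value is a visual injury score relative to controls, with 10 meaning complete control and 0 no effect. Evaluation took place twelve to sixteen days after the 2-leaf-stage plants were treated and kept in the greenhouse.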

smallflower flatsedge = assay: Test B flood test smallflower flatsedge; type: in vivo, Cyperus difformis
In short: as §2

duck salad = assay: Test B flood test duck salad; type: in vivo, Heteranthera limosa
In short: as §2

bamyardgrass = assay: Test B flood test barnyardgrass; type: in vivo, Echinochloa crus-galli
In short: as §2

[1] = Preemergence, Rate 62 g/ha, scale of 0 to 10 where 0 is no effect and 10 is complete control
[2] = Preemergence, Rate 125 g/ha, 0 is no effect, 10 is complete control
[3] = Preemergence, Rate 250 g/ha, scale 0 to 10, 0 is no effect, 10 is complete control
[4] = Rate 62 g/ha, Postemergence, scale of 0 to 10 where 0 is no effect and 10 is complete control
[5] = Rate 125 g/ha, Postemergence, scale 0 to 10
[6] = Rate 62 g/ha, headed Pre-emergence (flood test species), scale 0 to 10 (0 no effect, 10 complete control)
[7] = Rate 125 g/ha, Pre-emergence, flood test species, scale 0 to 10 where 0 is no effect and 10 is complete control
[8] = Rate 250 g/ha, Pre-emergence, flood-test species, scale 0 to 10, 0 is no effect, 10 is complete control
[9] = Rate 500 g/ha, headed Pre-emergence (flood test species), scale 0 to 10 (0 no effect, 10 complete control)

## Cc1ccccc1-n1c(=O)on(C(=O)N(c2ccc(F)cc2Cl)C(C)C)c1=O [Compound 186]
bedstraw; [1]
  Bedstraw plant response rating: 0
bedstraw; [2]
  Bedstraw plant response rating (0 to 10 scale): 0
bedstraw; [3]
  Bedstraw plant response rating: 0
bedstraw; [4]
  Bedstraw plant response rating: 0
bedstraw; [5]
  Bedstraw plant response rating: 0
bedstraw; Rate 250 g/ha, Postemergence
  Plant response rating (0 to 10; 0 is no effect, 10 is complete control), Bedstraw: 8
blackgrass; [1]
  Blackgrass plant response rating: 0
blackgrass; [2]
  Blackgrass plant response rating (0 to 10 scale): 0
blackgrass; [3]
  Blackgrass plant response rating: 3
blackgrass; [4]
  Blackgrass plant response rating: 0
blackgrass; [5]
  Blackgrass plant response rating: 0
blackgrass; Rate 250 g/ha, Postemergence
  Plant response rating (0 to 10; 0 is no effect, 10 is complete control), Blackgrass: 4
Surinam grass; [1]
  B. signalgrass plant response rating: 0
Surinam grass; [2]
  B. signalgrass plant response rating (0 to 10 scale): 0
Surinam grass; [3]
  B. signalgrass plant response rating: 0
Surinam grass; [4]
  B. signalgrass plant response rating: 0
Surinam grass; Rate 125 g/ha, Postemergence, scale 0 (no effect) to 10 (complete control)
  B. signalgrass plant response rating: 0
Surinam grass; Rate 250 g/ha, Postemergence, scale 0 to 10, 0 is no effect, 10 is complete control
  Plant response rating, B. signalgrass: 0
cocklebur; [1]
  Cocklebur plant response rating: 0
cocklebur; [2]
  Cocklebur plant response rating (0 to 10 scale): 0
cocklebur; [3]
  Cocklebur plant response rating: 0
cocklebur; [4]
  Cocklebur plant response rating: 0
cocklebur; [5]
  Cocklebur plant response rating: 0
cocklebur; Rate 250 g/ha, Postemergence
  Plant response rating (0 to 10; 0 is no effect, 10 is complete control), Cocklebur: 0
corn; [1]
  Corn plant response rating: 0
corn; [2]
  Corn plant response rating (0 to 10 scale): 0
corn; [3]
  Corn plant response rating: 0
corn; [4]
  Corn plant response rating: 0
corn; [5]
  Corn plant response rating: 0
corn; Rate 250 g/ha, Postemergence
  Plant response rating (0 to 10; 0 is no effect, 10 is complete control), Corn: 0
crabgrass; [1]
  Crabgrass plant response rating: 2
crabgrass; [2]
  Crabgrass plant response rating (0 to 10 scale): 6
crabgrass; [3]
  Crabgrass plant response rating: 6
crabgrass; [4]
  Crabgrass plant response rating: 0
crabgrass; [5]
  Crabgrass plant response rating: 0
crabgrass; Rate 250 g/ha, Postemergence
  Plant response rating (0 to 10; 0 is no effect, 10 is complete control), Crabgrass: 2
Giant foxtail; [1]
  Giant foxtail plant response rating: 5
Giant foxtail; [2]
  Giant foxtail plant response rating (0 to 10 scale): 9
Giant foxtail; [3]
  Giant foxtail plant response rating: 9
Giant foxtail; [4]
  Giant foxtail plant response rating: 0
Giant foxtail; [5]
  Giant foxtail plant response rating: 0
Giant foxtail; Rate 250 g/ha, Postemergence
  Plant response rating (0 to 10; 0 is no effect, 10 is complete control), Giant foxtail: 0
morningglory; [1]
  Morningglory plant response rating: 0
morningglory; [2]
  Morningglory plant response rating (0 to 10 scale): 0
morningglory; [3]
  Morningglory plant response rating: 0
morningglory; [4]
  Morningglory plant response rating: 1
morningglory; [5]
  Morningglory plant response rating: 2
morningglory; Rate 250 g/ha, Postemergence
  Plant response rating (0 to 10; 0 is no effect, 10 is complete control), Morningglory: 2
pigweed; [1]
  Redroot pigweed plant response rating: 0
pigweed; [2]
  Redroot pigweed plant response rating (0 to 10 scale): 0
pigweed; [3]
  Redroot pigweed plant response rating: 2
pigweed; [4]
  Redroot pigweed plant response rating: 0
pigweed; [5]
  Redroot pigweed plant response rating: 0
pigweed; Rate 250 g/ha, Postemergence
  Plant response rating (0 to 10; 0 is no effect, 10 is complete control), Redroot pigweed: 0
rape; [1]
  Rape plant response rating: 0
rape; [2]
  Rape plant response rating (0 to 10 scale): 0
rape; [3]
  Rape plant response rating: 0
rape; [4]
  Rape plant response rating: 0
rape; [5]
  Rape plant response rating: 0
rape; Rate 250 g/ha, Postemergence
  Plant response rating (0 to 10; 0 is no effect, 10 is complete control), Rape: 0
soybean; [1]
  Soybean plant response rating: 0
soybean; [2]
  Soybean plant response rating (0 to 10 scale): 0
soybean; [3]
  Soybean plant response rating: 0
soybean; [4]
  Soybean plant response rating: 1
soybean; [5]
  Soybean plant response rating: 1
soybean; Rate 250 g/ha, Postemergence
  Plant response rating (0 to 10; 0 is no effect, 10 is complete control), Soybean: 2
Sugar beet; [1]
  Sugarbeets plant response rating: 0
Sugar beet; [2]
  Sugarbeets plant response rating (0 to 10 scale): 0
Sugar beet; [3]
  Sugarbeets plant response rating: 0
Sugar beet; [4]
  Sugarbeets plant response rating: 0
Sugar beet; [5]
  Sugarbeets plant response rating: 0
Sugar beet; Rate 250 g/ha, Postemergence
  Plant response rating (0 to 10; 0 is no effect, 10 is complete control), Sugarbeets: 0
velvetleaf; [1]
  Velvetleaf plant response rating: 0
velvetleaf; [3]
  Velvetleaf plant response rating: 2
velvetleaf; [5]
  Velvetleaf plant response rating: 0
velvetleaf; Rate 250 g/ha, Postemergence
  Plant response rating (0 to 10; 0 is no effect, 10 is complete control), Velvetleaf: 0
wheat; [1]
  Wheat plant response rating: 0
wheat; [3]
  Wheat plant response rating: 0
wheat; [5]
  Wheat plant response rating: 0
wheat; Rate 250 g/ha, Postemergence
  Plant response rating (0 to 10; 0 is no effect, 10 is complete control), Wheat: 0
Wild oat; [1]
  Wild oats plant response rating: 0
Wild oat; [3]
  Wild oats plant response rating: 0
Wild oat; [5]
  Wild oats plant response rating: 0
Wild oat; Rate 250 g/ha, Postemergence
  Plant response rating (0 to 10; 0 is no effect, 10 is complete control), Wild oats: 0
Purple nutsedge; [1]
  Nutsedge plant response rating: 0
Purple nutsedge; [2]
  Nutsedge plant response rating (0 to 10 scale): 0
Purple nutsedge; [4]
  Nutsedge plant response rating: 0
Purple nutsedge; [5]
  Nutsedge plant response rating: 0
Purple nutsedge; Rate 250 g/ha, Postemergence
  Plant response rating (0 to 10; 0 is no effect, 10 is complete control), Nutsedge: 2
rice; [6]
  Rice plant response rating: 0
rice; [7]
  Rice plant response rating: 0
rice; [8]
  Rice plant response rating: 0
rice; [9]
  Plant response rating, Rice: 0
Smallflower flatsedge; [6]
  S. Flatsedge plant response rating: 0
Smallflower flatsedge; [7]
  S. Flatsedge plant response rating: 0
Smallflower flatsedge; [8]
  S. Flatsedge plant response rating: 0
Smallflower flatsedge; Rate 500 g/ha, Pre-emergence, flood test species, scale 0 to 10 (0 no effect, 10 complete control)
  S. Flatsedge plant response rating: 0
Duck salad; [6]
  Ducksalad plant response rating: 0
Duck salad; [7]
  Ducksalad plant response rating: 0
Duck salad; [8]
  Ducksalad plant response rating: 0
Duck salad; [9]
  Plant response rating, Ducksalad: 0
bamyardgrass; [6]
  Barnyardgrass plant response rating: 0
bamyardgrass; [7]
  Barnyardgrass plant response rating: 0
bamyardgrass; [8]
  Barnyardgrass plant response rating: 0
bamyardgrass; [9]
  Plant response rating, Barnyardgrass: 0
